Assay results: patent US11008572B2, “Methods and compositions for modulating splicing” (SKYHAWK THERAPEUTICS, INC., priority 2017, dated 2021)
Where two headings read alike, the source gives them in different places.

Assays:
A-673 cells = assay: Cell viability, crystal violet staining; assay type: cell-based; conditions: Homo sapiens, A673, cell viability
Summary of the method: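 Readout is absorbance at 570 nm of crystal violet, taken up in 0.1 M sodium citrate in 50% ethanol after staining with 0.5% dye in 25% methanol. Plates held 5×10^3 cells per well, and compounds were added one day after seeding for 72 hours. Data are relative to vehicle, mean±SE.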

[1] = system: FOXM1^A2 mRNA and FOXM1^BC mRNA; assay: Splicing assay (FOXM1), qPCR of isoform mRNAs; assay type: cell-based; conditions: for IC50: FoxM1 BC mRNA decrease (exon included), read-out: Splice IC50 (nM), FoxM1 BC mRNA decrease (exon included); for EC50: read-out: Splice EC50 (nM), FoxM1 A mRNA increase (exon excluded)
Summary of the method: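 RT-qPCR read-out after 24 h compound exposure at 37° C., 0.2% DMSO, top dose 10 μM with 4-fold 8-point dilutions, 20,000 cells per well. Copy numbers from plasmid standard curves, PPIA-normalized, expressed as isoform ratio relative to DMSO.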

[2] = read-out: A-673 IC50 (nM), Cell viability
[3] = FoxM1 A mRNA increase (exon excluded), 0.1-1000 nM, 24 hours

Row | SMILES | IC50 (A-673 cells; [2]) [nM] | IC50 ([1]; 24 h, 0.1-1000 nM, 24 hours) [nM] | EC50 [1, 3] [nM] | IC50 (A-673 cells; read-out: A-673 IC50 (nM), cell viability) [nM] | IC50 [1] [nM] | EC50 [1] [nM]
1 | Cc1nccn1-c1ccc(-c2ccc(N(C)[C@@H]3C[C@H]4CC[C@@H](C3)N4)nn2)c(O)c1 [compound 230, 2-(6-(((1R,3s,5S)-8-azabicyclo[3.2.1]octan-3-yl)(methyl)amino)pyridazin-3-yl)-5-(2-methyl-1H-imidazol-1-yl)phenol] | > 1000 | 501 to 1000 | 101 to 250 | – | – | –
2 | Cc1cn(-c2ccc(-c3ccc(N(C)[C@@H]4C[C@H]5CC[C@@H](C4)N5)nn3)c(O)c2)c(C)n1 [compound 231, 2-(6-(((1R,3s,5S)-8-azabicyclo[3.2.1]octan-3-yl)(methyl)amino)pyridazin-3-yl)-5-(2,4-dimethyl-1H-imidazol-1-yl)phenol] | > 1000 | 501 to 1000 | 251 to 500 | – | – | –
3 | CN(c1ccc(-c2ccc(-c3nnc(C(F)(F)F)o3)cc2O)nn1)[C@@H]1C[C@H]2CC[C@@H](C1)N2 [compound 232, 2-(6-(((1R,3s,5S)-8-azabicyclo[3.2.1]octan-3-yl)(methyl)amino)pyridazin-3-yl)-5-(5-(trifluoromethyl)-1,3,4-oxadiazol-2-yl)phenol] | > 1000 | 501 to 1000 | 101 to 250 | – | – | –
4 | Cc1nnn(-c2ccc(-c3ccc(N(C)[C@@H]4C[C@H]5CC[C@@H](C4)N5)nn3)c(O)c2)n1 [compound 234, 2-(6-(((1R,3s,5S)-8-azabicyclo[3.2.1]octan-3-yl)(methyl)amino)pyridazin-3-yl)-5-(5-methyl-2H-tetrazol-2-yl)phenol] | 10 to 100 | 10 to 100 | 10 to 100 | – | – | –
5 | Cc1ccc(-c2ccc(-c3ccc(N(C)[C@@H]4C[C@H]5CC[C@@H](C4)N5)nn3)c(O)c2)nn1 [compound 239, 2-(6-(((1R,3s,5S)-8-azabicyclo[3.2.1]octan-3-yl)(methyl)amino)pyridazin-3-yl)-5-(6-methylpyridazin-3-yl)phenol] | 251 to 500 | < 10 | < 10 | – | – | –
6 | CN(c1ccc(-c2ccc(-c3ccc(=O)n(C)c3)cc2O)nn1)[C@@H]1C[C@H]2CC[C@@H](C1)N2 [compound 241, 5-(4-(6-(((1R,3s,5S)-8-azabicyclo[3.2.1]octan-3-yl)(methyl)amino)pyridazin-3-yl)-3-hydroxyphenyl)-1-methylpyridin-2(1H)-one] | 101 to 250 | 10 to 100 | < 10 | – | – | –
7 | CN(c1ccc(-c2ccc(-n3cnc(C(F)(F)F)c3)cc2O)nn1)[C@@H]1C[C@H]2CC[C@@H](C1)N2 [compound 242, 2-(6-(((1R,3s,5S)-8-azabicyclo[3.2.1]octan-3-yl)(methyl)amino)pyridazin-3-yl)-5-(4-(trifluoromethyl)-1H-imidazol-1-yl)phenol] | 251 to 500 | 101 to 250 | 10 to 100 | – | – | –
8 | CN(c1ccc(-c2ccc(-n3cncn3)cc2O)nn1)[C@@H]1C[C@H]2CC[C@@H](C1)N2 [compound 243] | 10 to 100 | 10 to 100 | < 10 | – | – | –
9 | Cc1cn(-c2ccc(-c3ccc(O[C@@H]4C[C@H]5CC[C@@H](C4)N5)nn3)c(O)c2)cn1 [compound 246, 2-(6-(((1R,3s,5S)-8-azabicyclo[3.2.1]octan-3-yl)oxy)pyridazin-3-yl)-5-(4-methyl-1H-imidazol-1-yl)phenol] | 251 to 500 | 101 to 250 | 10 to 100 | – | – | –
10 | Cc1cnn(-c2ccc(-c3ccc(O[C@@H]4C[C@H]5CC[C@@H](C4)N5)nn3)c(O)c2)c1 [compound 249, 2-(6-(((1R,3s,5S)-8-azabicyclo[3.2.1]octan-3-yl)oxy)pyridazin-3-yl)-5-(4-methyl-1H-pyrazol-1-yl)phenol] | 501 to 1000 | 251 to 500 | 101 to 250 | – | – | –
11 | Cc1ccn(-c2ccc(-c3ccc(O[C@@H]4C[C@H]5CC[C@@H](C4)N5)nn3)c(O)c2)n1 [compound 250, 2-(6-(((1R,3s,5S)-8-azabicyclo[3.2.1]octan-3-yl)oxy)pyridazin-3-yl)-5-(3-methyl-1H-pyrazol-1-yl)phenol] | 501 to 1000 | 101 to 250 | 10 to 100 | – | – | –
12 | Oc1cc(-n2ccnn2)ccc1-c1ccc(O[C@@H]2C[C@H]3CC[C@@H](C2)N3)nn1 [compound 252, 2-(6-(((1R,3s,5S)-8-azabicyclo[3.2.1]octan-3-yl)oxy)pyridazin-3-yl)-5-(1H-1,2,3-triazol-1-yl)phenol] | 501 to 1000 | 251 to 500 | 101 to 250 | – | – | –
13 | Oc1cc(-c2nnn[nH]2)ccc1-c1ccc(O[C@@H]2C[C@H]3CC[C@@H](C2)N3)nn1 [compound 254, 2-(6-(((1R,3s,5S)-8-azabicyclo[3.2.1]octan-3-yl)oxy)pyridazin-3-yl)-5-(1H-tetrazol-5-yl)phenol] | > 1000 | > 1000 | > 1000 | – | – | –
14 | Cc1ncc(-c2ccc(-c3ccc(O[C@@H]4C[C@H]5CC[C@@H](C4)N5)nn3)c(O)c2)o1 [compound 255, 2-(6-(((1R,3s,5S)-8-azabicyclo[3.2.1]octan-3-yl)oxy)pyridazin-3-yl)-5-(2-methyloxazol-5-yl)phenol] | 501 to 1000 | 101 to 250 | 101 to 250 | – | – | –
15 | Cc1cc(-c2ccc(-c3ccc(O[C@@H]4C[C@H]5CC[C@@H](C4)N5)nn3)c(O)c2)on1 [compound 256, 2-(6-(((1R,3s,5S)-8-azabicyclo[3.2.1]octan-3-yl)oxy)pyridazin-3-yl)-5-(3-methylisoxazol-5-yl)phenol] | > 1000 | > 1000 | > 1000 | – | – | –
16 | CN(c1ccc(-c2ccc(-n3nccn3)cc2O)nn1)[C@@H]1C[C@H]2CCC[C@@H](C1)N2 [compound 275, 2-(6-(((1R,3s,5S)-9-azabicyclo[3.3.1]nonan-3-yl)(methyl)amino)pyridazin-3-yl)-5-(2H-1,2,3-triazol-2-yl)phenol] | < 10 | < 10 | < 10 | – | – | –
17 | Oc1cc(-c2cn[nH]c2)ccc1-c1ccc(O[C@H]2CC3CCC[C@@H](C2)N3)nn1 [compound 277, 2-(6-(((1R,3r,5S)-9-azabicyclo[3.3.1]nonan-3-yl)oxy)pyridazin-3-yl)-5-(1H-pyrazol-4-yl)phenol] | > 1000 | > 1000 | > 1000 | – | – | –
18 | CN(c1ccc(-c2ccc(-n3ccnn3)cc2O)nn1)[C@@H]1C[C@H]2CCC[C@@H](C1)N2 [compound 279, 2-(6-(((1R,3s,5S)-9-azabicyclo[3.3.1]nonan-3-yl)(methyl)amino)pyridazin-3-yl)-5-(1H-1,2,3-triazol-1-yl)phenol] | 10 to 100 | < 10 | < 10 | – | – | –
19 | [2H]C([2H])([2H])n1ncc(-c2ccc(-c3ccc(N(C)C4CC5CCCC(C4)N5)nn3)c(O)c2)cc1=O [compound 281, 5-(4-(6-(((1R,3s,5S)-9-azabicyclo[3.3.1]nonan-3-yl)(methyl)amino)pyridazin-3-yl)-3-hydroxyphenyl)-2-(methyl-d3)pyridazin-3(2H)-one] | < 10 | < 10 | < 10 | – | – | –
20 | [2H]C([2H])([2H])n1ccc(-c2ccc(-c3ccc(N(C)C4CC5CCCC(C4)N5)nn3)c(O)c2)cc1=O [compound 284, 4-(4-(6-(((1R,3s,5S)-9-azabicyclo[3.3.1]nonan-3-yl)(methyl)amino)pyridazin-3-yl)-3-hydroxyphenyl)-1-(methyl-d3)pyridin-2(1H)-one] | < 10 | < 10 | > 1000 | – | – | –
21 | CN(c1ccc(-c2cc(F)c(-c3ccn(C)c(=O)c3)cc2O)nn1)[C@@H]1C[C@H]2CCC[C@@H](C1)N2 [compound 285, 4-(4-(6-(((1R,3s,5S)-9-azabicyclo[3.3.1]nonan-3-yl)(methyl)amino)pyridazin-3-yl)-2-fluoro-5-hydroxyphenyl)-1-methylpyridin-2(1H)-one] | < 10 | < 10 | > 1000 | – | – | –
22 | CN(c1ccc(-c2cc3oc(C(=O)NC4CC4)cc3cc2O)nn1)[C@@H]1C[C@H]2CCC[C@@H](C1)N2 [compound 296, 6-(6-(((1R,3s,5S)-9-azabicyclo[3.3.1]nonan-3-yl)(methyl)amino)pyridazin-3-yl)-N-cyclopropyl-5-hydroxybenzofuran-2-carboxamide] | 101 to 250 | 10 to 100 | < 10 | – | – | –
23 | [2H]C([2H])([2H])c1ncc(-c2cc(O)c(-c3ccc(N(C)[C@H]4C[C@]5(C)CC[C@](C)(C4)N5)nn3)cc2F)o1 [compound 304, 2-(6-(((1R,3s,5S)-1,5-dimethyl-8-azabicyclo[3.2.1]octan-3-yl)(methyl)amino)pyridazin-3-yl)-4-fluoro-5-(2-(methyl-d3)oxazol-5-yl)phenol] | 10 to 100 | < 10 | > 1000 | – | – | –
24 | CN(c1ccc(-c2cc(F)c(-c3cc[nH]c(=O)c3)cc2O)nn1)[C@H]1C[C@]2(C)CCC[C@](C)(C1)N2 [compound 307, 4-(4-(6-(((1R,3s,5S)-1,5-dimethyl-9-azabicyclo[3.3.1]nonan-3-yl)(methyl)amino)pyridazin-3-yl)-2-fluoro-5-hydroxyphenyl)pyridin-2(1H)-one] | – | – | – | 10 to 100 | < 10 | < 10
